Test results taken from patent US6828339B2, “Amlodipine salt forms and processes for preparing them” (Synthon BV, priority 2001, dated 2004).

Legend:
Assay type in all cases: physicochemical
[1] = Weight gain of dried (anhydrate) salt form on exposure to air; details: exposed to air
Description: 1(c). A sample of the anhydrate formed in example 1(b) was exposed to air and the weight gain recorded as follows: […]

[2] = Weight loss on drying in a vacuum oven; details: vacuum oven at 40° C. for 65 hours
Description: 1(b). 735.1 mg of the product of example 1(a) was dried in a vacuum oven at 40° C. for 65 hours. The weight loss was 0.043 g or 5.85%, which corresponds to 1.9 moles of water per mole of amlodipine.

[3] = Annealing of the dihydrate, form checked by IR
Description: 1(d). A sample from example 1(a) was annealed for 10 minutes at 90° C. while another sample of the same product was annealed for 30 minutes at 145° C. […] The IR for the sample annealed for 10 minutes is as shown in FIG. 4 and the IR for the sample annealed for 30 minutes is as shown in FIG. 5.

[4] = Stability in solid state and in solution
Light sensitivity = details: compared with known anhydrate
[5] = compared with known prior art anhydrate

CCOC(=O)C1=C(COCCN)NC(C)=C(C(=O)OC)C1c1ccccc1Cl.O=S(=O)(O)c1ccccc1 (centres unmarked) [example 1(b)]
moles of water taken up for one mole of amlodipine ([1]; 21 hour): two | Weight after 30 min ([1]; weight at start 103.1 mg): 105.7 mg | Weight after 1 hour ([1]; weight at start 103.1 mg): 107.3 mg | Weight after 3.5 hour ([1]; weight at start 103.1 mg): 109.3 mg | Weight after 21 hour ([1]; weight at start 103.1 mg): 109.3 mg

CCOC(=O)C1=C(COCCN)NC(C)=C(C(=O)OC)C1c1ccccc1Cl.O=S(=O)(O)c1ccccc1 (centres unmarked) [example 2(a)]
mole of water taken up for one mole of amlodipine ([1]; 21 hour): one | Weight after 30 min ([1]; weight at start 318.6 mg): 320.3 mg | Weight after 1 hour ([1]; weight at start 318.6 mg): 323.9 mg | Weight after 3.5 hour ([1]; weight at start 318.6 mg): 328.2 mg | Weight after 21 hour ([1]; weight at start 318.6 mg): 328.2 mg

amlodipine besylate dihydrate [example 1(a)]
moles of water per mole of amlodipine lost [2]: 1.9 mol | form after annealing (IR) ([3]; annealed for 10 minutes at 90° C.): converted to the known anhydrate form | form after annealing (IR) ([3]; annealed for 30 minutes at 145° C.): converted to the known anhydrate form

amlodipine besylate monohydrate
stability in solid state [4, 5]: equivalent to the known prior art amlodipine besylate anhydrate form | stability in solution [4, 5]: equivalent to the known prior art amlodipine besylate anhydrate form | stability of hydrate form ([4]; monohydrate compared with dihydrate, conversion by heating): more stable than the dihydrate form | light sensitivity (Light sensitivity): slightly less in comparison to the known anhydrate
